Assay results from US12528819B2 (priority 2016, dated 2026).
Entries after “also recorded” stand apart in the source; their conditions may differ. Like-named read-outs stand apart in the source and are kept apart here.

What was measured:
α5β3γ2 GABAA receptors = target: T1, α5β3γ2 GABAA receptors (Homo sapiens, UniProt P18507+P31644); test: Binding activity of test compounds on GABAAR: inhibition of [3H]Ro15-1788 binding, membranes of Ltk cells
T1 construct: membranes
T1 sequence (P31644 32-462): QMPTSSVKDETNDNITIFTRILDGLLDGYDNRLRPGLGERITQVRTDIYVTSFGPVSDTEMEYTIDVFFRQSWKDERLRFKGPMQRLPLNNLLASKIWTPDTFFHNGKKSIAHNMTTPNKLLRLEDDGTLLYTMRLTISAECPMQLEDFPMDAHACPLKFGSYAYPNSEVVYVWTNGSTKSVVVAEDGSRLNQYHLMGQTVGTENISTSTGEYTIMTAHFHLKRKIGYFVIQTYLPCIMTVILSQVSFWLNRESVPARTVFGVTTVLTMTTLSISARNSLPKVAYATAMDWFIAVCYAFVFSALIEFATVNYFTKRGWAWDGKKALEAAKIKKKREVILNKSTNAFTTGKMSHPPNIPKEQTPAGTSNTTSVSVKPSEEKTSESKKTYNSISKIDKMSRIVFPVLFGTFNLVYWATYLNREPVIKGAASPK
T1 sequence (P28472 26-473 partner): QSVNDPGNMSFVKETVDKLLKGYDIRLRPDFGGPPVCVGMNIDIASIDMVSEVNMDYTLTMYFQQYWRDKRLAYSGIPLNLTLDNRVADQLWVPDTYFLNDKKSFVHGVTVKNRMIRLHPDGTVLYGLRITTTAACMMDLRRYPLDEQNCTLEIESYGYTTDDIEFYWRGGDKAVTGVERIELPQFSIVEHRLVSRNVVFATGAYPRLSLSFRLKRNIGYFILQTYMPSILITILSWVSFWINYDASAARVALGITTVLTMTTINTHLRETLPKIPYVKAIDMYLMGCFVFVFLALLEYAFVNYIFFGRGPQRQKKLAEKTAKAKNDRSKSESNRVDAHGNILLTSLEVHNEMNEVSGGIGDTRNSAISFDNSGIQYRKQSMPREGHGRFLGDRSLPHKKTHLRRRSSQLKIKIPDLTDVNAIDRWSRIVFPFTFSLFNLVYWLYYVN
T1 sequence (P18507 40-467 limits assumed): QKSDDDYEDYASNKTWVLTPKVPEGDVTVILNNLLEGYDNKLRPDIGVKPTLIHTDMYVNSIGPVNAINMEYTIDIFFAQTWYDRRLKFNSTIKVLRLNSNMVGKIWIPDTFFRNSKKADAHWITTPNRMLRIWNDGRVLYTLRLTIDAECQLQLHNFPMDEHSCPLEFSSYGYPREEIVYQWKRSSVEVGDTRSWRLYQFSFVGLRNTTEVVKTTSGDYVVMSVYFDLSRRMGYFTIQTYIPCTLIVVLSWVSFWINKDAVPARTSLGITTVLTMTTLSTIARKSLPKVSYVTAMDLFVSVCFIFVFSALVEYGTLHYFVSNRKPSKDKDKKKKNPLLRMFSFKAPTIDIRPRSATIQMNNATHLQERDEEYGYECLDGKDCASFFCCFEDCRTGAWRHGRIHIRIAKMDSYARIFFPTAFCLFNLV
Description: (A) Binding activity of test compounds on GABAAR
Tissue culture and Membrane Preparation: The binding was performed on Ltk cells stably expressing GABAA receptors: α1β1γ2, α2β3γ2, α3β3γ2 and α5β3γ2 (provided by Merck Co., NJ, USA). Cells were seeded in 100 mm culture plates in DMEM/F12 medium containing 10% scrum and antibiotics in 5% CO2 and allowed to grow for 1-2 days. GABAAR expression was then induced by dexamethasone as follows: 0.5 μM for 1 day for α5 containing and 2 μM for 3 days for α1, α2 and α3 containing GABAARs. After induction, cells were collected by scraping into Dulbecco's Phosphate buffered saline (DPBS, pH 7.4, Invitrogen, Carlsbad, CA, USA) and centrifuged at 150×g for 10 min. The pellet was washed twice by re-suspension and centrifugation. The cell pellets from at least 5 different preps were combined, suspended in the binding assay buffer (50 mM KH2PO4; 1 mM EDTA; 0.2 M KCl, pH 7.4) and membranes prepared by sonication (3-5 times, 30 sec) using Branson Sonifier 150 (G. Heinmann, Germany). Protein content was determined using BCA assay (Bio-Rad Labs, Reinach, Switzerland) with Bovine Serum Albumin (Sigma Aldrich, St. Louis, MO, USA) as the standard. Aliquots were prepared and stored at −20° C. for further use in binding assays.
Ligand Binding: Saturation binding curves were obtained by incubating membranes with increasing concentrations (0.01-8 nM) of [^3H]Rol5-1788 (Flumazepil, 75-85 Ci/mmol, PerkinElmer, MA, USA), with nonspecific binding measured in the presence of 10 μM diazepam.
All binding assays were performed for 1 h at 4° C. in assay buffer. The total assay volume was 0.5 ml containing 0.2 mg/ml protein for α5 and 0.4 mg/ml for α1, α2, and α3 containing GABAAR membranes. Incubations were terminated by filtration through GF/B filters using a 24-Cell Harvestor (Brandel, Gaithersburg, MD, USA) followed by 3 washes with ice-cold assay buffer. […] Next day, radioactivity was obtained using a scintillation counter (Beckman Coulter, Brea, CA, USA). […]

α5β2γ2 subtype GABAAR = target: T2, α5β2γ2 subtype GABAAR (Homo sapiens, UniProt P18507+P31644); test: Positive allosteric modulator activity: potentiation of EC20 GABA current in oocytes; format: cell-based; settings: read-out: GABA α5 Functional Data (potentiation), @ 100 nM, reported as ranges
T2 construct: expressed in transfected cells
T2 sequence (P31644 32-462): T1 sequence (P31644 32-462)
T2 sequence (P47870 25-512 partner limits assumed): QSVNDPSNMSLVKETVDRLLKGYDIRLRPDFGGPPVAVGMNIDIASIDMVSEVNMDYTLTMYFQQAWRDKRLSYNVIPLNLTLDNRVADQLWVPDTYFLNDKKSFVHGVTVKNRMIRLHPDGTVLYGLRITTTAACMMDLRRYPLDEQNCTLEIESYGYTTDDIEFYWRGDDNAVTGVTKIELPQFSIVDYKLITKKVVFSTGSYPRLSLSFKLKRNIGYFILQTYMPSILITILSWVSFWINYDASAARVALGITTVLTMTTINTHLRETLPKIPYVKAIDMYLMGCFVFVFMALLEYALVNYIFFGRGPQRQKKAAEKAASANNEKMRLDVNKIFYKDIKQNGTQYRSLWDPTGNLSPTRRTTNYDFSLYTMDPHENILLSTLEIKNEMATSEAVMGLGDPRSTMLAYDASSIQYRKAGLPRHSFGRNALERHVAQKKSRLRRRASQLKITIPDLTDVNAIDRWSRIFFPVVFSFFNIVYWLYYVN
T2 sequence (P18507 40-467 limits assumed): T1 sequence (P18507 40-467 limits assumed)
Summary of the method: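 Xenopus oocytes injected with 1 ng α5:β2:γ2 cDNA (1:1:10 by weight) and recorded on day 2 by two-electrode voltage clamp under MBS superfusion. Potentiation (%) = Itest/IGABA at EC20 GABA; each oocyte used for one concentration only.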

aged-impaired (AI) rats = test: Radial Arm Maze (RAM) behavioral task, spatial memory retention; format: in vivo, rat; settings: two-hour delay
Description: The effects of methyl 3,5-diphenylpyridazine-4-carboxylate on the in vivo spatial memory retention of aged-impaired (AI) rats were assessed in a Radial Arm Maze (RAM) behavioral task using vehicle control and four different dosage levels of methyl 3,5-diphenylpyridazine-4-carboxylate (0.1 mg/kg, 0.3 mg/kg, 1 mg/kg and 3 mg/kg, ip). RAM behavioral tasks were performed on eight AI rats. All five treatment conditions (vehicle and four dosage levels) were tested on all eight rats.
The RAM apparatus used consisted of eight equidistantly-spaced arms. An elevated maze arm (7 cm width×75 cm length) projected from each facet of an octagonal center platform (30 cm diameter, 51.5 cm height). Clear side walls on the arms were 10 cm high and were angled at 65° to form a trough. A food well (4 cm diameter, 2 cm deep) was located at the distal end of each arm. Froot Loops™ (Kellogg Company) were used as rewards. Blocks constructed of Plexiglas™ (30 cm height×12 cm width) could be positioned to prevent entry to any arm. Numerous extra maze cues surrounding the apparatus were also provided.
The AI rats were initially subjected to a pre-training test (Chappell et al. Neuropharmacology 37: 481-487, 1998). The pre-training test consisted of a habituation phase (4 days), a training phase on the standard win-shift task (18 days) and another training phase (14 days) in which a brief delay was imposed between presentation of a subset of arms designated by the experimenter (e.g., 5 arms available and 3 arms blocked) and completion of the eight-arm win-shift task (i.e., with all eight arms available).
In the habituation phase, rats were familiarized to the maze for an 8-minute session on four consecutive days. In each of these sessions, food rewards were scattered on the RAM, initially on the center platform and arms and then progressively confined to the arms. After this habituation phase, a standard training protocol was used, in which a food pellet was located at the end of each arm. Rats received one trial each day for 18 days. Each daily trial terminated when all eight food pellets had been obtained or when either 16 choices were made or 15 minutes had elapsed. After completion of this training phase, a second training phase was carried out in which the memory demand was increased by imposing a brief delay during the trial. At the beginning of each trial, three arms of the eight-arm maze were blocked. Rats were allowed to obtain food on the five arms to which access was permitted during this initial “information phase” of the trial. Rats were then removed from the maze for 60 seconds, during which time the barriers on the maze were removed, thus allowing access to all eight arms. […]

GABAA α5 receptor = target: T3, GABAA α5 receptor (Rattus norvegicus, UniProt P18508+P19969); test: GABAA α5 receptor occupancy with Ro 15-4513 tracer (hippocampus vs cerebellum); format: in vivo; settings: for % RO (L-655,708 Method): young Long Evans rats
T3 construct: from tissue; host or cells: rat brain in vivo; hippocampus versus cerebellum
Description: (§1) Food and water were available ad libitum.

[1] = format: in vivo, rat; settings: for Hippocampus exposure / Plasma exposure / Young Hippocampus exposure / Young Plasma exposure: young Long Evans rats; for Aged Hippocampus exposure / Aged Plasma exposure: aged Long Evans rats
Description: as §1
For plasma exposures, blood samples were centrifuged at 14000 rpm for 16 minutes. After centrifuging, 50 ul of supernatant (plasma) from each sample was added to 200 μl of acetonitrile plus 0.1% formic acid. […] Samples were sonicated for 5 minutes in an ultrasonic water bath, followed by centrifugation for 30 minutes, at 16000 RPM. 100 ul of supernatant was removed from each sample vial and placed in a new glass auto sample vial, followed by the addition of 300 μl of sterile water (pH 6.5).
Additional studies were conducted in aged Long-Evans rats in order to determine the exposures at the behaviorally relevant doses in the cognition studies. Exposure in young Long-Evans rats was also determined to bridge with the receptor occupancy studies that were conducted in young Long-Evans rats. Exposures in young and aged Long-Evans rats were relatively similar (Table 4, FIG. 4).

α5-containing GABAA R = target: T4, α5-containing GABAA R (Homo sapiens, UniProt P18507+P31644); settings: EC20; cited from earlier work
T4 sequence (P31644 32-462): T1 sequence (P31644 32-462)
T4 sequence (P28472 26-473 partner): T1 sequence (P28472 26-473 partner)
T4 sequence (P18507 40-467 limits assumed): T1 sequence (P18507 40-467 limits assumed)

T3 sequence (P19969 32-464 limits assumed): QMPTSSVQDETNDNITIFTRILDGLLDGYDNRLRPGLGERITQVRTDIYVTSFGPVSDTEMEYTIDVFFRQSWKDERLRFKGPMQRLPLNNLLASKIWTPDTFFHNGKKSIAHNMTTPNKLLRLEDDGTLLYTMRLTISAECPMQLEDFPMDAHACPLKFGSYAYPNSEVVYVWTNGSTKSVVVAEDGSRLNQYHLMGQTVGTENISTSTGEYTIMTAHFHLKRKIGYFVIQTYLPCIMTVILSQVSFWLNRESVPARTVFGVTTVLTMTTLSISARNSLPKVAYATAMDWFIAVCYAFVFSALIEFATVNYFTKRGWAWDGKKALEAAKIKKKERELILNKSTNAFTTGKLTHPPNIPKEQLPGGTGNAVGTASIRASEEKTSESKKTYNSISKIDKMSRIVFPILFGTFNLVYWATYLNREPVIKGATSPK
T3 sequence (P18508 39-466): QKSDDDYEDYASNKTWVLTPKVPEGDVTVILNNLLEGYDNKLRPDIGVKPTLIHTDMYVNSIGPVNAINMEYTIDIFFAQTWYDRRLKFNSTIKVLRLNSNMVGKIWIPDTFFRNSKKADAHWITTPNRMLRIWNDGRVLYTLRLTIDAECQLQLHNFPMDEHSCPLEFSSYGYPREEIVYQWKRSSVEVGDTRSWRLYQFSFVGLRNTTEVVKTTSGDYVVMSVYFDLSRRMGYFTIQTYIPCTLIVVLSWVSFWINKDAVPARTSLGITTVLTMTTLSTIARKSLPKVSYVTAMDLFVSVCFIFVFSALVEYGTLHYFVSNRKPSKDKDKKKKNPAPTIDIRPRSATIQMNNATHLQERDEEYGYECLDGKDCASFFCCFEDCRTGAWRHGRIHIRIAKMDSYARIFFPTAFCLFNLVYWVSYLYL

Compound: COC1C=C2C(=CC1)n1cnc(-c3noc(C(C)C)n3)c1Cn1c(COc3ccccc3Cl)nnc12 (centres unmarked) [Compound 175]
- Ki (α5β3γ2 GABAA receptors): < 0.1 µM
- activation at 0.1 µM (α5β2γ2 subtype GABAAR): 20 to 50%

Compound: COC(=O)c1c(-c2ccccc2)cnnc1-c1ccccc1 [methyl 3,5-diphenylpyridazine-4-carboxylate]
- average no. of errors ± SEM, retention test (aged-impaired (AI) rats; 3 mg/kg ip): 1.31±0.40
- memory performance relative to vehicle control (aged-impaired (AI) rats; 3 mg/kg, t(7)=4.233, p=0.004): significantly improved memory performance
- % RO (L-655,708 Method) (GABAA α5 receptor; 0.01 mg/kg i.v.): 19.2%
- % RO (L-655,708 Method) (GABAA α5 receptor; 0.1 mg/kg i.v.): 16.4%
- % RO (L-655,708 Method) (GABAA α5 receptor; 1 mg/kg i.v.): 38.5%
- effect on Ro 15-4513 binding in hippocampus (GABAA α5 receptor; 0.01-10 mg/kg, i.v.): dose-dependently reduced; also recorded: blocked
- effect on Ro 15-4513 levels (binding) in cerebellum (GABAA α5 receptor; 0.01-10 mg/kg, i.v.): without affecting; also recorded: did not affect
- GABAA α5 receptors occupied (GABAA α5 receptor; at exposures behaviorally active in aged-impaired rats (FIG. 4)): about 32%
- receptor occupancy at 10 mg/kg (GABAA α5 receptor; rat, iv, 10 mg/kg): > 90%
- ED50 (GABAA α5 receptor; rat, iv, ratio method): 1.8 mg/kg
- Hippocampus exposure ([1]; 0.01 mg/kg i.v.): BQL
- Plasma exposure ([1]; 0.01 mg/kg i.v.): BQL
- Plasma exposure ([1]; 0.1 mg/kg i.v.): BQL
- Hippocampus exposure ([1]; 1 mg/kg i.v.): 180.0 ng/g
- Aged Hippocampus exposure ([1]; 1 mg/kg ip): 38.8 ng/g
- Aged Plasma exposure ([1]; 1 mg/kg ip): 45.2 ng/mL
- Young Hippocampus exposure ([1]; 1 mg/kg ip): 25.9 ng/g
- Young Plasma exposure ([1]; 1 mg/kg ip): 20.0 ng/mL
- Aged Hippocampus exposure ([1]; 3 mg/kg ip): 177.5 ng/g
- Aged Plasma exposure ([1]; 3 mg/kg ip): 196 ng/mL
- Young Hippocampus exposure ([1]; 3 mg/kg ip): 129.1 ng/g
- Young Plasma exposure ([1]; 3 mg/kg ip): 132.9 ng/mL
- brain/plasma ratios ([1]; Long Evans, rat, in vivo): > 1
- increase in hippocampal exposure ([1]; dose from 0.1 to 1 mg/kg, i.v.): 12 fold
- increase in hippocampal exposure ([1]; dose from 1 to 10 mg/kg, i.v.): ~5 fold
- increase in plasma exposure ([1]; dose from 1 to 10 mg/kg, i.v.): 12 fold
- α5 in vitro efficacy (α5-containing GABAA R): +27
